# Test results: PMC10608817, “Extending the Affinity Range of Weak Affinity Chromatography for the Identification of Weak Ligands Targeting Membrane Proteins” (Molecules, 2023)
# pKd: −log10 of the molar value.
# Biological target: T1, Adenosine-A2A Receptor (AA2AR) (Homo sapiens, UniProt P29274)
# T1 construct: gene ADORA2A; human AA2AR N-terminally fused to the flag and decahistidine tags, in nanodiscs
# Test: biochemical
# Assay type: binding
# T1 sequence (P29274 whole entry, the tested form may be a part): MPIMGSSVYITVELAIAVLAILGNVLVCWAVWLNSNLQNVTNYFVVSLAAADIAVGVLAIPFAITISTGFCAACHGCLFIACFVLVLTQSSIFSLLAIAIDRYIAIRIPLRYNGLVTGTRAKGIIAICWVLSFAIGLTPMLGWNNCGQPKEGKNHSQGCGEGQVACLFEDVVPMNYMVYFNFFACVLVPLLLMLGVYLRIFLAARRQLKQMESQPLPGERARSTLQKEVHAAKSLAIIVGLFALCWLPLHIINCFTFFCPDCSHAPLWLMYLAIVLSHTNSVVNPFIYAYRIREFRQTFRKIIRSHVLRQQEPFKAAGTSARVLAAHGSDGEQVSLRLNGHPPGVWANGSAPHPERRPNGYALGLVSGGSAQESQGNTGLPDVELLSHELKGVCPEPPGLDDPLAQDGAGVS
row,pKd,SMILES
1,3.68,"COc1ccc2[nH]ccc2n1 [F468, 5-methoxy-1H-pyrrolo[3,2-b]pyridine]"
2,3.72,"COc1cc2cc[nH]c2cn1 [F469, 5-methoxy-1H-pyrrolo[2,3-c]pyridine]"
